Data on 26 compounds can be found in patent publication US20060100226A1, “2-Thiopyrimidinones as therapeutic agents” (priority 2004, published 2006).

Experiment [1] addresses T1, murine MEKK2 (mMEKK2) (Mus musculus, UniProt Q61083).
T1 sequence (Q61083 1-619): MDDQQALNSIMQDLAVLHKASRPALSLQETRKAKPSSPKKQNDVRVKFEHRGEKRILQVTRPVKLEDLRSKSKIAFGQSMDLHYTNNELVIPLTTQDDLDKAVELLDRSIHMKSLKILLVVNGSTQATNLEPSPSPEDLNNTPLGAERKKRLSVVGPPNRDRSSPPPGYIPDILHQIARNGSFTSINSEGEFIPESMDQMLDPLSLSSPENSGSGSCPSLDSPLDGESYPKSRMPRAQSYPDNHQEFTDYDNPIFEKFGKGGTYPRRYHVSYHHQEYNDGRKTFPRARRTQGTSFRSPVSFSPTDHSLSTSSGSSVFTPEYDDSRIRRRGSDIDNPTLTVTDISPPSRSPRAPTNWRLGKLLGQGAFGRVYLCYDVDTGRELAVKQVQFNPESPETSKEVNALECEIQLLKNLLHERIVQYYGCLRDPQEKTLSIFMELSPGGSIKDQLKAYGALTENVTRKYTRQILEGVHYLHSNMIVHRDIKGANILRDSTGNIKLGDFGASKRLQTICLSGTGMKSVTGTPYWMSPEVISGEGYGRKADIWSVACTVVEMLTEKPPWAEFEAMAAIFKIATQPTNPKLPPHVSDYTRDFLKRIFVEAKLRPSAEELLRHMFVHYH
In words: TR-FRET kinase assay (mMEKK2/MBP). It counts as biochemical. The settings on record: substrate biotin MBP, 60 minutes at room temperature. The procedure, abridged:
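mMEKK2 was preincubated 10 min with compound in pH 7.5 Hepes/MgCl2/DTT/vanadate buffer, then biotin-MBP, anti-phospho-MBP antibody and ATP (5 uM solution added) were added and the reaction ran 60 min at room temperature. After EDTA stop, europium anti-mouse IgG and Cy5-streptavidin were added and TR-FRET was read at 615/665 nm.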

The target of experiment [2] is T1, murine MEKK2 (mMEKK2). Put plainly: MEKK2 PhosphoELISA (mMEKK2/MKK4). It counts as biochemical. The conditions noted are these: substrate MKK4/SKK1 (unactive), ATP final 10 μM, O.D. 450 nm. The source says: Another useful method for assessing protein kinase inhibition, and specifically MEKK2 inhibition, of compounds of the invention involves the MEKK2 phospho-antibody enzyme-linked immunosorbent assay (PhosphoELISA). This screening panel, which involves relatively few steps, is a useful indicator of potential inhibitors of MEKK2. Reactions to murine MEKK2 are observed as optical density measurements at an absorbance of 450 nm. Inhibitory activities can be expressed in terms of IC50, where IC50 is the molar concentration of compound required to inhibit protein kinase binding by 50%.
A phospho-antibody enzyme-linked immunosorbent assay (PhosphoELISA) was used to screen potential inhibitors of MEKK2. The assay was performed as follows: Compounds to be tested were weighed and solubilized in DMSO (Sigma) to a stock concentration of 10 mM. Serial dilutions starting from 1 mM were prepared with additional DMSO. These dilutions were further diluted to 250 μM in kinase reaction buffer [20 mM Hepes pH 7.5, 5 mM MgCl2, 1 mM DTT (Dithiothreitol-Sigma), 1 mM NaVO4 (sodium vanadate- Sigma). A 25 μl aliquot of this solution was transferred to a glutathione coated 96-well microplate (Pierce). A stock aliquot containing 50-125 ng of murine MEKK2 (mMEKK2) was added to each well and incubated on the microplate for 10 minutes at room temperature. A 25 μl solution of MKK4/SKK1 (unactive) was diluted 1:200 in kinase assay buffer and added to the reaction plate followed by 50 μl of 25 μM ATP (adenosine triphosphate) to afford a final well concentration of 10 μM. The reaction was allowed to proceed for 60 minutes at room temperature before washing 3 times with wash buffer [100 mM phosphate pH 7.5, 0.05% TWEEN 20 (Sigma)]. A solution of anti-phospho MKK4/SEK1 antibody (Calbiochem) and biotin anti rabbit IgG (Jackson Immunoresearch) was diluted 1:2500 in kinase reaction buffer and added to the appropriate wells. The reaction was incubated for 60 minutes at room temperature. The microplate was washed 3 times with wash buffer and 100 ul of streptavidin horseradish peroxidase (HRP-Pierce) was added and incubated for 30 minutes at room temperature. The microplate was washed 3 times with wash buffer and 100 μl of TMB (3,3′,5,5′-tetramethylbenzidine-Sigma) was added. The assay was allowed to develop for 15-20 minutes then the reaction was stopped with the addition of 100 μl of 0.2 N sulfuric acid. The optical density (O.D.) of the plate was read on the Victor™ plate reader using the absorbance at 450 nm.

With `N#Cc1c(-c2ccc(C(F)(F)F)cc2)nc(SCc2cccc(NC(=O)c3ccc(Cl)c(Cl)c3)c2)[nH]c1=O` [Example 2ff, 3,4-Dichloro-N-{3-[5-cyano-6-oxo-4-(4-trifluoromethyl-phenyl)-1,6-dihydro-pyrimidin-2-ylsulfanylmethyl]-phenyl}-benzamide], the IC50 against murine MEKK2 (mMEKK2) [1] and on murine MEKK2 (mMEKK2) [2] was under 5 µM throughout.
Take `N#Cc1c(-c2ccccc2OC(F)(F)F)nc(SCc2cccc(NC(=O)c3ccc(Cl)c(Cl)c3)c2)[nH]c1=O` [Example 2dd, 3,4-Dichloro-N-{3-[5-cyano-6-oxo-4-(2-trifluoromethoxy-phenyl)-1,6-dihydro-pyrimidin-2-ylsulfanylmethyl]-phenyl}-benzamide]: the IC50 on murine MEKK2 (mMEKK2) [1] and on murine MEKK2 (mMEKK2) [2] was under 5 µM in each case.
In the case of `COc1cccc(-c2nc(SCc3cccc(NCc4cccc(Oc5ccc(Cl)cc5)c4)c3)[nH]c(=O)c2C#N)c1` [Example 1cc], the IC50 against murine MEKK2 (mMEKK2) [1] and against murine MEKK2 (mMEKK2) [2] was under 1 µM in each case.
As for `COc1ccc(-c2nc(SCc3cccc(NCc4ccc(Cl)c(Cl)c4)c3)[nH]c(=O)c2C#N)cc1-c1cccs1` [Example 1c], the values for the IC50 against murine MEKK2 (mMEKK2) [1] and at murine MEKK2 (mMEKK2) [2] were under 5 µM and under 1 µM, respectively.
The like results for `N#Cc1c(-c2ccc(OC(F)(F)F)cc2)nc(SCc2cccc(NC(=O)c3ccc(Cl)c(Cl)c3)c2)[nH]c1=O` [Example 2hh, 3,4-Dichloro-N-{3-[5-cyano-6-oxo-4-(4-trifluoromethoxy-phenyl)-1,6-dihydro-pyrimidin-2-ylsulfanylmethyl]-phenyl}-benzamide] were, in that order, under 40 µM and under 20 µM.
The corresponding values for `COc1cccc(-c2nc(SCc3cccc(NCc4ccc5cccc(O)c5n4)c3)[nH]c(=O)c2C#N)c1` [Example 1v] are under 1 µM and under 1 µM.
On to `COc1cccc(-c2nc(SCc3cccc(NCc4ccc(Cl)c(Cl)c4)c3)[nH]c(=O)c2C#N)c1` [Example 1a, 2-[3-(3,4-Dichloro-benzylamino)-benzylsulfanyl]-4-(3-methoxy-phenyl)-6-oxo-1,6-dihydro-pyrimidine-5-carbonitrile], for which the IC50 against murine MEKK2 (mMEKK2) [1] and against murine MEKK2 (mMEKK2) [2] was under 1 µM each time.
Consider `N#Cc1c(-c2cccc(S(=O)(=O)NCc3ccccc3)c2)nc(SCc2cccc(NC(=O)c3ccc(Cl)c(Cl)c3)c2)[nH]c1=O` [Example 4p], for which the IC50 against murine MEKK2 (mMEKK2) [2] is under 5 µM.
For the compound `N#Cc1c(-c2ccccc2-c2cc3ccccc3s2)nc(SCc2cccc(NC(=O)c3ccc(Cl)c(Cl)c3)c2)[nH]c1=O` [Example 2bb, N-{3-[4-(2-Benzo[b]thiophen-2-yl-phenyl)-5-cyano-6-oxo-1,6-dihydro-pyrimidin-2-ylsulfanylmethyl]-phenyl}-3,4-dichloro-benzamide], the IC50 at murine MEKK2 (mMEKK2) [1] is under 5 µM; at murine MEKK2 (mMEKK2) [2], under 1 µM.
The corresponding values for `COc1ccc(-c2nc(SCc3cccc(NC(=O)c4ccc(Cl)c(Cl)c4)c3)[nH]c(=O)c2C#N)cc1-c1cccs1` [Example 2y, 3,4-Dichloro-N-{3-[5-cyano-4-(4-methoxy-3-thiophen-2-yl-phenyl)-6-oxo-1,6-dihydro-pyrimidin-2-ylsulfanylmethyl]-phenyl}-benzamide] are under 5 µM and under 1 µM.
The corresponding values for `COc1cccc(-c2nc(SCc3cccc(NC(=O)c4c(-c5ccccc5)noc4C)c3)[nH]c(=O)c2C#N)c1` [Example 2i] are under 10 µM and under 10 µM.
The corresponding values for `N#Cc1c(-c2cccc(-c3cc4ccccc4s3)c2)nc(SCc2cccc(NC(=O)c3ccc(Cl)c(Cl)c3)c2)[nH]c1=O` [Example 2z, N-{3-[4-(3-Benzo[b]thiophen-2-yl-phenyl)-5-cyano-6-oxo-1,6-dihydro-pyrimidin-2-ylsulfanylmethyl]-phenyl}-3,4-dichloro-benzamide] are under 1 µM and under 1 µM.
Compound `CCN(CC)CCOc1ccc(-c2nc(SCc3cccc(NC(=O)c4ccc(Cl)c(Cl)c4)c3)[nH]c(=O)c2C#N)cc1` [Example 4z] returned an IC50 against murine MEKK2 (mMEKK2) [2] of over 40 µM.
As for `COc1cccc(-c2nc(SCc3cccc(NC(=O)c4ccc(Cl)c(Cl)c4)c3)[nH]c(=O)c2C#N)c1` [Example 2h], the IC50 on murine MEKK2 (mMEKK2) [1] and at murine MEKK2 (mMEKK2) [2] was under 5 µM throughout.
Take `COc1ccc(-c2nc(SCc3cccc(NCc4ccc(Cl)c(Cl)c4)c3)[nH]c(=O)c2C#N)cc1OC` [Example 1b, 2-[3-(3,4-Dichloro-benzylamino)-benzylsulfanyl]-4-(3,4-dimethoxy-phenyl)-6-oxo-1,6-dihydro-pyrimidine-5-carbonitrile]: the figures for the IC50 against murine MEKK2 (mMEKK2) [1] and at murine MEKK2 (mMEKK2) [2] were under 5 µM and under 1 µM, respectively.
For the compound `CCc1nc(C)c(-c2nc(SCc3cccc(NC(=O)c4ccc(Cl)c(Cl)c4)c3)[nH]c(=O)c2C#N)[nH]1` [Example 4dd], the IC50 against murine MEKK2 (mMEKK2) [2] is over 40 µM.
For the compound `N#Cc1c(-c2cccc([N+](=O)[O-])c2)nc(SCc2cccc(NC(=O)c3ccc(Cl)c(Cl)c3)c2)[nH]c1=O` [Example 2ii, 3,4-Dichloro-N-{3-[5-cyano-4-(3-nitro-phenyl)-6-oxo-1,6-dihydro-pyrimidin-2-ylsulfanylmethyl]-phenyl}-benzamide], the half-maximal inhibitory concentration (IC50) at murine MEKK2 (mMEKK2) [1] was under 5 µM; on murine MEKK2 (mMEKK2) [2] it was under 1 µM.
The corresponding values for `N#Cc1c(-c2cccc(N)c2)nc(SCc2cccc(NC(=O)c3ccc(Cl)c(Cl)c3)c2)[nH]c1=O` [Example 4n] are under 10 µM and under 10 µM.
As for `N#Cc1c(-c2cccc(C(F)(F)F)c2)nc(SCc2cccc(NC(=O)c3ccc(Cl)c(Cl)c3)c2)[nH]c1=O` [Example 2gg, 3,4-Dichloro-N-{3-[5-cyano-6-oxo-4-(3-trifluoromethyl-phenyl)-1,6-dihydro-pyrimidin-2-ylsulfanylmethyl]-phenyl}-benzamide], the IC50 on murine MEKK2 (mMEKK2) [1] was over 40 µM; on murine MEKK2 (mMEKK2) [2] it was under 5 µM.
The compound `COc1cccc(-c2nc(SCc3cccc(NCc4cnc(O)nc4O)c3)[nH]c(=O)c2C#N)c1` [Example 4d] yielded an IC50 against murine MEKK2 (mMEKK2) [2] of over 40 µM.
On the same count and under the same terms, then `N#Cc1c(-c2ccc(-n3cccn3)cc2)nc(SCc2cccc(NC(=O)c3ccc(Cl)c(Cl)c3)c2)[nH]c1=O` [Example 4t], with under 20 µM; and `CC(C)(C)OC(=O)n1c(-c2cccc(-c3nc(SCc4cccc(NC(=O)c5ccc(Cl)c(Cl)c5)c4)[nH]c(=O)c3C#N)c2)cc2ccccc21` [Example 2jj, 2-(3-{5-Cyano-2-[3-(3,4-dichloro-benzoylamino)-benzylsulfanyl]-6-oxo-1,6-dihydro-pyrimidin-4-yl}-phenyl)-indole-1-carboxylic acid tert-butyl ester], with under 1 µM; and `N#Cc1c(-c2cccc(C(=O)O)c2)nc(SCc2cccc(NC(=O)c3ccc(Cl)c(Cl)c3)c2)[nH]c1=O` [Example 4m], with under 20 µM.
On the same count and under the same terms, then `COc1cccc(-c2nc(SCCCn3cnc(NC(=O)c4ccc(Cl)c(Cl)c4)n3)[nH]c(=O)c2C#N)c1` [Example 4ff], with over 40 µM; and `N#Cc1c(-c2ccc(-n3cccc3)cc2)nc(SCc2cccc(NC(=O)c3ccc(Cl)c(Cl)c3)c2)[nH]c1=O` [Example 4s], with under 1 µM.
With `COc1cccc(-c2nc(SCc3cccc(NCc4ccccc4)c3)[nH]c(=O)c2C#N)c1` [Example 1d], the IC50 against murine MEKK2 (mMEKK2) [1] and on murine MEKK2 (mMEKK2) [2] was under 5 µM each time.
